Laboratory results reported in ChEMBL document CHEMBL3297661, “1-Substituted-5-[(3,5-dinitrobenzyl)sulfanyl]-1H-tetrazoles and their isosteric analogs: A new class of selective antitubercular agents active against drug-susceptible and multidrug-resistant mycobacteria” (Eur J Med Chem, 2014).
≈ marks a conversion by molar mass, not a printed value.

Key:
Pseudomonas aeruginosa [1] = assay: Antibacterial activity against Pseudomonas aeruginosa ATCC 9027 after 48 hrs by broth microdilution method; type: functional; details: ATCC 9027, 48 h
Candida albicans [2] = assay: Antifungal activity against Candida albicans ATCC 44859 after 24 hrs by broth microdilution method; type: functional; details: ATCC 44859, 24 h
Candida albicans [3] = assay: Antifungal activity against Candida albicans ATCC 44859 after 48 hrs by broth microdilution method; type: functional; details: ATCC 44859, 48 h
Candida tropicalis [4] = assay: Antifungal activity against Candida tropicalis 156 after 24 hrs by broth microdilution method; type: functional; details: Candida tropicalis, 156, 24 h
Candida tropicalis [5] = assay: Antifungal activity against Candida tropicalis 156 after 48 hrs by broth microdilution method; type: functional; details: Candida tropicalis, 156, 48 h
Pichia kudriavzevii [6] = assay: Antifungal activity against Candida krusei E28 after 24 hrs by broth microdilution method; type: functional; details: E28, 24 h
Pichia kudriavzevii [7] = assay: Antifungal activity against Candida krusei E28 after 48 hrs by broth microdilution method; type: functional; details: E28, 48 h
Nakaseomyces glabratus [8] = assay: Antifungal activity against Candida glabrata 20/I after 24 hrs by broth microdilution method; type: functional
Nakaseomyces glabratus [9] = assay: Antifungal activity against Candida glabrata 20/I after 48 hrs by broth microdilution method; type: functional
Trichosporon asahii [10] = assay: Antifungal activity against Trichosporon asahii 1188 after 24 hrs by broth microdilution method; type: functional; details: Trichosporon asahii, 1188, 24 h
Trichosporon asahii [11] = assay: Antifungal activity against Trichosporon asahii 1188 after 48 hrs by broth microdilution method; type: functional; details: Trichosporon asahii, 1188, 48 h
Aspergillus fumigatus [12] = assay: Antifungal activity against Aspergillus fumigatus 231 after 24 hrs by broth microdilution method; type: functional, organism-based; details: Aspergillus fumigatus, 231, 24 h
Aspergillus fumigatus [13] = assay: Antifungal activity against Aspergillus fumigatus 231 after 48 hrs by broth microdilution method; type: functional, organism-based; details: Aspergillus fumigatus, 231, 48 h
Lichtheimia corymbifera [14] = assay: Antifungal activity against Absidia corymbifera 272 after 24 hrs by broth microdilution method; type: functional, organism-based; details: Lichtheimia corymbifera, 272, 24 h
Lichtheimia corymbifera [15] = assay: Antifungal activity against Absidia corymbifera 272 after 48 hrs by broth microdilution method; type: functional, organism-based; details: Lichtheimia corymbifera, 272, 48 h
[16] = system: Trichophyton mentagrophytes; assay: Antifungal activity against Trichophyton mentagrophytes 445 after 72 hrs by broth microdilution method; type: functional, organism-based; details: Trichophyton mentagrophytes, 445, 72 h
[17] = system: Trichophyton mentagrophytes; assay: Antifungal activity against Trichophyton mentagrophytes 445 after 120 hrs by broth microdilution method; type: functional, organism-based; details: Trichophyton mentagrophytes, 445, 120 h
[18] = Cytotoxicity against human HeLa cells assessed as cell viability at 30 uM after 48 hrs by MTT assay; type: cell-based; details: read-out: Activity
[19] = Cytotoxicity against human HuH7 cells assessed as cell viability at 30 uM after 48 hrs by MTT assay; type: cell-based, Huh-7; details: read-out: Activity
[20] = Cytotoxicity against human HepG2 cells assessed as cell viability at 30 uM after 48 hrs by MTT assay; type: cell-based; details: read-out: Activity
[21] = Cytotoxicity against MDCK2 cells assessed as cell viability at 30 uM after 48 hrs by MTT assay; type: cell-based, Canis lupus familiaris, MDCK-II; details: dog, read-out: Activity
HeLa = assay: Cytotoxicity against human HeLa cells assessed as reduction in cell viability after 48 hrs by MTT assay; type: cell-based
[22] = Cytotoxicity against human HuH7 cells assessed as reduction in cell viability after 48 hrs by MTT assay; type: cell-based; details: Huh-7, 48 h
[23] = Cytotoxicity against MDCK2 cells assessed as reduction in cell viability after 48 hrs by MTT assay; type: cell-based; details: Canis lupus familiaris, MDCK-II
HepG2 = assay: Cytotoxicity against human HepG2 cells assessed as reduction in cell viability after 48 hrs by MTT assay; type: cell-based; details: HepG2, 48 h
[24] = system: Mycobacterium tuberculosis; assay: Antimycobacterial activity against Mycobacterium tuberculosis CNCTC My 331/88 after 14 days by micromethod; type: functional; details: CNCTC My 331/88, 336 h
[25] = system: Mycobacterium tuberculosis; assay: Antimycobacterial activity against Mycobacterium tuberculosis CNCTC My 331/88 after 21 days by micromethod; type: functional; details: CNCTC My 331/88, 504 h
Mycobacterium avium [26] = assay: Antimycobacterial activity against Mycobacterium avium CNCTC My 330/88 after 14 days by micromethod; type: functional; details: CNCTC My 330/88, 336 h
Mycobacterium avium [27] = assay: Antimycobacterial activity against Mycobacterium avium CNCTC My 330/88 after 21 days by micromethod; type: functional; details: CNCTC My 330/88, 504 h
Mycobacterium kansasii [28] = assay: Antimycobacterial activity against Mycobacterium kansasii CNCTC My 235/80 after 7 days by micromethod; type: functional; details: CNCTC My 235/80, 168 h
Mycobacterium kansasii [29] = assay: Antimycobacterial activity against Mycobacterium kansasii CNCTC My 235/80 after 14 days by micromethod; type: functional; details: CNCTC My 235/80, 336 h
Mycobacterium kansasii [30] = assay: Antimycobacterial activity against Mycobacterium kansasii CNCTC My 235/80 after 21 days by micromethod; type: functional; details: CNCTC My 235/80, 504 h
Mycobacterium kansasii [31] = assay: Antimycobacterial activity against Mycobacterium kansasii 6509/96 after 7 days by micromethod; type: functional; details: 6509/96, 168 h
Mycobacterium kansasii [32] = assay: Antimycobacterial activity against Mycobacterium kansasii 6509/96 after 14 days by micromethod; type: functional; details: 6509/96, 336 h
Mycobacterium kansasii [33] = assay: Antimycobacterial activity against Mycobacterium kansasii 6509/96 after 21 days by micromethod; type: functional; details: 6509/96, 504 h
Staphylococcus aureus [34] = assay: Antibacterial activity against Staphylococcus aureus ATCC 6538 after 24 hrs by broth microdilution method; type: functional; details: ATCC 6538, 24 h
Staphylococcus aureus [35] = assay: Antibacterial activity against Staphylococcus aureus ATCC 6538 after 48 hrs by broth microdilution method; type: functional; details: ATCC 6538, 48 h
Staphylococcus aureus [36] = assay: Antibacterial activity against methicillin-resistant Staphylococcus aureus H 5996/08 after 24 hrs by broth microdilution method; type: functional; details: H 5996/08, 24 h
Staphylococcus aureus [37] = assay: Antibacterial activity against methicillin-resistant Staphylococcus aureus H 5996/08 after 48 hrs by broth microdilution method; type: functional; details: H 5996/08, 48 h
[38] = system: Staphylococcus epidermidis; assay: Antibacterial activity against Staphylococcus epidermidis H 6966/08 after 24 hrs by broth microdilution method; type: functional; details: H 6966/08, 24 h
[39] = system: Staphylococcus epidermidis; assay: Antibacterial activity against Staphylococcus epidermidis H 6966/08 after 48 hrs by broth microdilution method; type: functional; details: H 6966/08, 48 h
Enterococcus faecalis [40] = assay: Antibacterial activity against Enterococcus faecalis J 14365/08 after 24 hrs by broth microdilution method; type: functional; details: J 14365/08, 24 h
Enterococcus faecalis [41] = assay: Antibacterial activity against Enterococcus faecalis J 14365/08 after 48 hrs by broth microdilution method; type: functional; details: J 14365/08, 48 h
Escherichia coli [42] = assay: Antibacterial activity against Escherichia coli ATCC 8739 after 24 hrs by broth microdilution method; type: functional; details: ATCC 8739, ATCC 8739, 24 h
Escherichia coli [43] = assay: Antibacterial activity against Escherichia coli ATCC 8739 after 48 hrs by broth microdilution method; type: functional; details: ATCC 8739, ATCC 8739, 48 h
Klebsiella pneumoniae [44] = assay: Antibacterial activity against Klebsiella pneumoniae D 11750/08 after 24 hrs by broth microdilution method; type: functional; details: D 11750/08, 24 h
Klebsiella pneumoniae [45] = assay: Antibacterial activity against Klebsiella pneumoniae D 11750/08 after 48 hrs by broth microdilution method; type: functional; details: D 11750/08, 48 h
Klebsiella pneumoniae [46] = assay: Antibacterial activity against extended spectrum beta-lactamase producing Klebsiella pneumoniae J 14368/08 after 24 hrs by broth microdilution method; type: functional; details: J 14368/08, 24 h
Klebsiella pneumoniae [47] = assay: Antibacterial activity against extended spectrum beta-lactamase producing Klebsiella pneumoniae J 14368/08 after 48 hrs by broth microdilution method; type: functional; details: J 14368/08, 48 h
Pseudomonas aeruginosa [48] = assay: Antibacterial activity against Pseudomonas aeruginosa ATCC 9027 after 24 hrs by broth microdilution method; type: functional; details: ATCC 9027, 24 h

O=[N+]([O-])c1cc(CSc2nnnn2-c2ccc(Cl)c(Cl)c2)cc([N+](=O)[O-])c1
IC95 (Pseudomonas aeruginosa [1]): > 125 µM | IC80 (Candida albicans [2]): > 125 µM | IC80 (Candida albicans [3]): > 125 µM | IC80 (Candida tropicalis [4]): > 125 µM | IC80 (Candida tropicalis [5]): > 125 µM | IC80 (Pichia kudriavzevii [6]): > 125 µM | IC80 (Pichia kudriavzevii [7]): > 125 µM | IC80 (Nakaseomyces glabratus [8]): > 125 µM | IC80 (Nakaseomyces glabratus [9]): > 125 µM | IC80 (Trichosporon asahii [10]): > 125 µM | IC80 (Trichosporon asahii [11]): > 125 µM | IC50 (Aspergillus fumigatus [12]): > 125 µM | IC50 (Aspergillus fumigatus [13]): > 125 µM | IC50 (Lichtheimia corymbifera [14]): > 125 µM | IC50 (Lichtheimia corymbifera [15]): > 125 µM | IC50 [16]: > 125 µM | IC50 [17]: > 125 µM | viability at 48 h, 30 µM [18]: 67% | viability at 48 h, 30 µM [19]: 90% | viability at 48 h, 30 µM [20]: 42% | viability at 48 h, 30 µM [21]: 53% | IC50 (HeLa): > 30 µM | IC50 [22]: > 30 µM | IC50 [23]: > 30 µM | IC50 (HepG2): 26 µM | MIC [24]: 1 µM (≈ 0.427 µg/mL) | MIC [25]: 1 µM (≈ 0.427 µg/mL) | MIC (Mycobacterium avium [26]): 8 µM (≈ 3.42 µg/mL) | MIC (Mycobacterium avium [27]): 16 µM (≈ 6.84 µg/mL) | MIC (Mycobacterium kansasii [28]): 1 µM (≈ 0.427 µg/mL) | MIC (Mycobacterium kansasii [29]): 1 µM (≈ 0.427 µg/mL) | MIC (Mycobacterium kansasii [30]): 2 µM (≈ 0.854 µg/mL) | MIC (Mycobacterium kansasii [31]): 1 µM (≈ 0.427 µg/mL) | MIC (Mycobacterium kansasii [32]): 2 µM (≈ 0.854 µg/mL) | MIC (Mycobacterium kansasii [33]): 4 µM (≈ 1.71 µg/mL) | IC95 (Staphylococcus aureus [34]): > 125 µM | IC95 (Staphylococcus aureus [35]): > 125 µM | IC95 (Staphylococcus aureus [36]): > 125 µM | IC95 (Staphylococcus aureus [37]): > 125 µM | IC95 [38]: > 125 µM | IC95 [39]: > 125 µM | IC95 (Enterococcus faecalis [40]): > 125 µM | IC95 (Enterococcus faecalis [41]): > 125 µM | IC95 (Escherichia coli [42]): > 125 µM | IC95 (Escherichia coli [43]): > 125 µM | IC95 (Klebsiella pneumoniae [44]): > 125 µM | IC95 (Klebsiella pneumoniae [45]): > 125 µM | IC95 (Klebsiella pneumoniae [46]): > 125 µM | IC95 (Klebsiella pneumoniae [47]): > 125 µM | IC95 (Pseudomonas aeruginosa [48]): > 125 µM
